In patent US11944632B2, “Use of sodium dichloroisocyanurate (NaDCC) and a pharmaceutical formulation prepared therefrom” (SAVA HEALTHCARE LTD, priority 2020, dated 2024):

Legend:
Bacterial membrane = conditions: cited from earlier work
Escherichia coli = conditions: cited from earlier work
mammalian cell vero6 = test: Anti-COVID activity: cell survival (cytotoxicity); conditions: vero6 cells infected with COVID-19 virus
Aspergillus sps = test: Susceptibility of fungus isolated from Salacia reticulata to NaDCC; format: cell-based
Method: (§1) The bacteria (Bacillus licheniformis, and Bacillus paralicheniformis) and fungus (Aspergillus sps) isolated from the Salacia reticulata and bacteria Bacillus licheniformis isolated from Garcinia cambogia extract was tested for susceptibility for the sensitivity towards NaDCC.

Bacillus licheniformis = test: Susceptibility of bacteria isolated from Garcinia cambogia extract to NaDCC; format: cell-based
Method: as §1

COVID-19 virus = test: Anti-COVID activity: inhibition of virus replication; conditions: Severe acute respiratory syndrome coronavirus 2, read-out: Inhibition of the virus replication
[1] = temperate and tropical climates; cited from earlier work
[2] = system: Bacillus licheniformis, and Bacillus paralicheniformis; test: Susceptibility of bacteria isolated from Salacia reticulata to NaDCC; format: cell-based
Method: as §1

[3] = system: 29 Gram-positive and 29 Gram-negative bacteria, as well as 66 fungi; conditions: independent of pH and temperature; cited from earlier work
[4] = Stability of NaDCC solution (HDPE bottle); conditions: tables 6 to 9
[5] = system: microbial load of Salacia extract; test: % microbial load reduction in Salacia extract; conditions: for Total cfu/g: untreated 21000
Excerpt: Example 4: % Microbial Load Reduction in Ayurvedic Herbs and Extracts by Using Sodium Dichloroisocyanurate (NaDCC)

[6] = Cyanuric acid and free available chlorine in lung homogenate after NaDCC DPI; conditions: administered as a DPI
Excerpt: Further, the so obtained NaDCC DPI was clinically assessed by determining the amount of cyanuric acid in the tissues.

coliforms and E. coli = conditions: 25 mg/ml, raw river water; cited from earlier work
[7] = NaDCC 0.05% to 5% mixed with Salacia extract (inference)

Row | SMILES | Concentration below which bacterial membrane disruption and release of cell contents is not observed (Bacterial membrane) | HOCl concentration that completely inhibited cell division (Escherichia coli; Escherichia coli) [µM] | IC50 (Escherichia coli; read-out: HOCl required for 50% inhibition of bacterial growth, 5×10^8 Escherichia coli/ml) [µM] | Survival of cell (FIG. 3B) (mammalian cell vero6) | Anti-fungal activity (FIG. 1) (Aspergillus sps) | Antibacterial activity (FIG. 2) (Bacillus licheniformis) | inhibition at 600 ppm (COVID-19 virus) [%] | Shelf life [1] [years] | Antibacterial activity (FIG. 1) [2] | Antimicrobial activity [3] | Stability in acetic acid and cyanuric acid as a solution (inference) [4] | Total cfu/g ([5]; 0.02 g NaDCC in 10 g Salacia extract (0.2%), batch RDP/SR/073) [cfu/g] | Total cfu/g ([5]; 0.04 g NaDCC in 10 g Salacia extract (0.4%), batch RDP/SR/074) [cfu/g] | % microbial reduction ([5]; 0.2% of input extract, batch RDP/SR/073) [%] | % microbial reduction ([5]; 0.4% of input extract, batch RDP/SR/074) [%] | Reduction in bacterial counts [5, 7] [logs] | Reduction of bacterial load [5, 7] [%] | Metabolism / tissue accumulation [6] | Reduction of viable bacteria (coliforms and E. coli)
1 | OCl [HOCl, Hypochlorous acid] | below 5 mM | 50 | 20 | – | – | – | – | – | – | – | – | – | – | – | – | – | – | – | –
2 | O=c1[n-]c(=O)n(Cl)c(=O)n1Cl.[Na+] [NaDCC, Sodium 3,5-dichloro-2,4,6-trioxo-1,3,5-triazinan-1-ide] | – | – | – | increase the survival of cell | anti-fungal activity | effective antibacterial activity | > 100 | 5 | effective antibacterial activity | effective | stable | <10 | <10 | >99 | >99 | 4 | 99.99 | metabolized fast with a short half-life and not accumulated in tissues | 1.8-2.8 logs
